# According to patent US8394848B2, “Compounds that modulate intracellular calcium” (Calcimedica, Inc., priority 2008, dated 2013):
# Tested on: JR251 or RBL cells
# Assay: Store-operated calcium entry, either JR251 or RBL cells, or both
# Format: cell-based
# Outline: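 Orai1/STIM1 stable cells: fluo-4-AM loaded, compound 30 min at RT in Ca2+-free HBSS, then CaCl2 added; IC50 from Peak-Basal FLIPR fluorescence. RBL-2H3 cells: compound 5 min, then thapsigargin (5.5× stock, 5.5 uM) 25 min, then calcium added; IC50 from Upslope (signal 7 s after calcium minus baseline).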
row,IC50,Compound
1,< 10 µM,"Cc1ccc(-c2csc(NC(=O)c3cc(Cl)sc3Cl)c2C(=O)O)cc1 [2-(2,5-dichlorothiophene-3-carboxamido)-4-p-tolylthiophene-3-carboxylic acid]"
2,< 10 µM,O=C(Nc1scc(-c2ccc(Cl)cc2)c1C(=O)O)c1cscn1 [4-(4-chlorophenyl)-2-(thiazole-4-carboxamido)thiophene-3-carboxylic acid]
3,< 10 µM,Cc1cc(-c2csc(NC(=O)c3cc4ccccc4o3)c2C(=O)O)c(F)cc1Cl [2-(benzofuran-2-carboxamido)-4-(4-chloro-2-fluoro-5-methylphenyl)thiophene-3-carboxylic acid]
4,< 10 µM,O=C(Nc1scc(-c2ccc(Oc3ccccc3)cc2)c1C(=O)O)c1nc2ccccc2o1 [2-(benzo[d]oxazole-2-carboxamido)-4-(4-phenoxyphenyl)thiophene-3-carboxylic acid]
5,< 10 µM,Cc1ccc(-c2csc(NC(=O)c3nc4ccccc4s3)c2C(=O)O)cc1F [2-(benzo[d]thiazole-2-carboxamido)-4-(3-fluoro-4-methylphenyl)thiophene-3-carboxylic acid]
6,< 10 µM,"Cc1ccc(-c2csc(NC(=O)c3ccsc3)c2C(=O)O)cc1C [4-(3,4-dimethylphenyl)-2-(thiophene-3-carboxamido)thiophene-3-carboxylic acid]"
7,< 10 µM,"O=C(Nc1scc(-c2cc(F)c(Cl)cc2F)c1C(=O)O)c1cc2ccccc2o1 [2-(benzofuran-2-carboxamido)-4-(4-chloro-2,5-difluorophenyl)thiophene-3-carboxylic acid]"
8,< 10 µM,"O=C(O)c1c(-c2ccc(Cl)cc2)csc1NC(=O)C1COc2ccccc2O1 (centres unmarked) [4-(4-chlorophenyl)-2-(2,3-dihydrobenzo[b][1,4]dioxine-2-carboxamido)thiophene-3-carboxylic acid]"
9,< 10 µM,"Cc1ccc(-c2csc(NC(=O)c3cc(C)oc3C)c2C(=O)O)cc1 [2-(2,5-dimethylfuran-3-carboxamido)-4-p-tolylthiophene-3-carboxylic acid]"
10,< 10 µM,"Cc1c(F)ccc(-c2csc(NC(=O)c3cc4ccccc4o3)c2C(=O)O)c1C [2-(benzofuran-2-carboxamido)-4-(4-fluoro-2,3-dimethylphenyl)thiophene-3-carboxylic acid]"
11,< 10 µM,O=Cc1ccc(-c2csc(NC(=O)c3nc4ccccc4o3)c2C(=O)O)cc1 [2-(benzo[d]oxazole-2-carboxamido)-4-(4-formylphenyl)thiophene-3-carboxylic acid]
12,< 10 µM,"O=C(CSc1ccccc1)Nc1scc(-c2ccc(Cl)cc2Cl)c1C(=O)O [4-(2,4-dichlorophenyl)-2-(2-(phenylthio)acetamido)thiophene-3-carboxylic acid]"
13,< 10 µM,N#Cc1ccc(-c2csc(NC(=O)CCc3ccccc3)c2C(=O)O)cc1 [4-(4-cyanophenyl)-2-(3-phenylpropanamido)thiophene-3-carboxylic acid]
14,< 10 µM,O=C(Nc1scc(-c2ccc(Cl)cc2)c1C(=O)O)c1nc2cc(Cl)ccc2o1 [2-(5-chlorobenzo[d]oxazole-2-carboxamido)-4-(4-chlorophenyl)thiophene-3-carboxylic acid]
15,< 10 µM,"O=C(O)c1c(-c2ccc(Br)cc2)csc1Nc1nc(-c2ccccc2)no1 [4-(4-bromophenyl)-2-(3-phenyl-1,2,4-oxadiazol-5-ylamino)thiophene-3-carboxylic acid]"
16,< 10 µM,"O=C(Nc1scc(-c2ccc(Cl)cc2)c1C(=O)O)c1ccc2snnc2c1 [2-(benzo[d][1,2,3]thiadiazole-5-carboxamido)-4-(4-chlorophenyl)thiophene-3-carboxylic acid]"
17,< 10 µM,O=C(Nc1scc(-c2ccc(Cl)cc2)c1C(=O)O)c1nc2ccc([N+](=O)[O-])cc2s1 [4-(4-chlorophenyl)-2-(6-nitrobenzo[d]thiazole-2-carboxamido)thiophene-3-carboxylic acid]
18,< 10 µM,N#Cc1cccc2nc(C(=O)Nc3scc(-c4ccc(Br)cc4)c3C(=O)O)oc12 [4-(4-bromophenyl)-2-(7-cyanobenzo[d]oxazole-2-carboxamido)thiophene-3-carboxylic acid]
19,< 10 µM,"Cc1ccc(-c2csc(NC(=O)c3cc4c(F)cccn4n3)c2C(=O)O)c(F)c1F [4-(2,3-difluoro-4-methylphenyl)-2-(4-fluoropyrazolo[1,5-a]pyridine-2-carboxamido)thiophene-3-carboxylic acid]"
20,< 10 µM,N#C/C(=C\c1ccccc1)C(=O)Nc1scc(-c2ccc(Cl)cc2)c1C(=O)O [(E)-4-(4-chlorophenyl)-2-(2-cyano-3-phenylacrylamido)thiophene-3-carboxylic acid]
21,< 10 µM,O=C(Nc1scc(-c2ccc(Cl)cc2)c1C(=O)O)c1cc(-c2ccccc2)on1 [4-(4-chlorophenyl)-2-(5-phenylisoxazole-3-carboxamido)thiophene-3-carboxylic acid]
22,< 10 µM,"O=C(Nc1scc(-c2ccc(Br)c(F)c2F)c1C(=O)O)c1cc2ccccc2o1 [2-(benzofuran-2-carboxamido)-4-(4-bromo-2,3-difluorophenyl)thiophene-3-carboxylic acid]"

row,IC50,Compound
1,< 10 µM,O=C(Nc1scc(-c2ccc(Cl)cc2)c1C(=O)O)c1ncc2ccccc2n1 [4-(4-chlorophenyl)-2-(quinazoline-2-carboxamido)thiophene-3-carboxylic acid]
2,< 10 µM,O=C(Nc1scc(-c2ccc(Cl)cc2)c1C(=O)O)OCc1ccccc1Cl [2-((2-chlorobenzyloxy)carbonylamino)-4-(4-chlorophenyl)thiophene-3-carboxylic acid]
3,< 10 µM,O=C(CCc1ccco1)Nc1scc(-c2ccc(Cl)cc2)c1C(=O)O [4-(4-chlorophenyl)-2-(3-(furan-2-yl)propanamido)thiophene-3-carboxylic acid]
4,< 10 µM,"O=C(O)c1c(-c2ccc(Cl)cc2)csc1NC(=O)C1Cc2ccccc2S1 (centres unmarked) [4-(4-chlorophenyl)-2-(2,3-dihydrobenzo[b]thiophene-2-carboxamido)thiophene-3-carboxylic acid]"
5,< 10 µM,"O=C(Nc1scc(-c2ccc(Cl)c(Cl)c2)c1C(=O)O)c1ccc2snnc2c1 [2-(benzo[d][1,2,3]thiadiazole-5-carboxamido)-4-(3,4-dichlorophenyl)thiophene-3-carboxylic acid]"
6,< 10 µM,O=C(Nc1scc(-c2cc3cccc(O)c3o2)c1C(=O)O)c1cc2ccccc2o1 [2-(benzofuran-2-carboxamido)-4-(7-hydroxybenzofuran-2-yl)thiophene-3-carboxylic acid]
7,< 10 µM,O=C(Nc1scc(-c2cc3ccccc3o2)c1C(=O)O)c1cc2ccccc2o1 [2-(benzofuran-2-carboxamido)-4-(benzofuran-2-yl)thiophene-3-carboxylic acid]
8,< 10 µM,"COc1cc(F)c(-c2csc(NC(=O)c3cc4ccccc4o3)c2C(=O)O)c(F)c1 [2-(benzofuran-2-carboxamido)-4-(2,6-difluoro-4-methoxyphenyl)thiophene-3-carboxylic acid]"
9,< 10 µM,"N#Cc1c(Cl)ccc(-c2csc(NC(=O)c3cc4ccccc4o3)c2C(=O)O)c1Cl [2-(benzofuran-2-carboxamido)-4-(2,4-dichloro-3-cyanophenyl)thiophene-3-carboxylic acid]"
10,< 10 µM,O=C(Nc1scc(-c2cc3cccc(-c4cc[nH]n4)c3o2)c1C(=O)O)c1cc2ccccc2o1 [4-(7-(1H-pyrazol-3-yl)benzofuran-2-yl)-2-(benzofuran-2-carboxamido)thiophene-3-carboxylic acid]
11,< 10 µM,O=C(Nc1scc(-c2ccc(C(F)(F)F)cc2)c1C(=O)O)c1cccs1 [2-(thiophene-2-carboxamido)-4-(4-(trifluoromethyl)phenyl)thiophene-3-carboxylic acid]
12,< 10 µM,O=C(Nc1scc(-c2ccccc2Br)c1C(=O)O)c1cccs1 [4-(2-bromophenyl)-2-(thiophene-2-carboxamido)thiophene-3-carboxylic acid]
13,< 10 µM,"O=C(O)c1c(-c2ccc(Cl)c(Cl)c2)csc1NC(=O)C1CC1 [2-(cyclopropanecarboxamido)-4-(3,4-dichlorophenyl)thiophene-3-carboxylic acid]"
14,< 10 µM,Cc1ccc(-c2csc(NC(=O)c3ccc4ccccc4n3)c2C(=O)O)cc1 [2-(quinoline-2-carboxamido)-4-p-tolylthiophene-3-carboxylic acid]
15,< 10 µM,"O=C(CCc1ccccc1)Nc1scc(-c2ccc(Cl)c(Cl)c2)c1C(=O)O [4-(3,4-dichlorophenyl)-2-(3-phenylpropanamido)thiophene-3-carboxylic acid]"
16,< 10 µM,Cc1cc(-c2csc(NC(=O)c3nc4ccccc4o3)c2C(=O)O)c(F)cc1Cl [2-(benzo[d]oxazole-2-carboxamido)-4-(4-chloro-2-fluoro-5-methylphenyl)thiophene-3-carboxylic acid]
17,< 10 µM,O=C(CCc1ccccc1F)Nc1scc(-c2ccc(Br)cc2)c1C(=O)O [4-(4-bromophenyl)-2-(3-(2-fluorophenyl)propanamido)thiophene-3-carboxylic acid]
18,< 10 µM,O=C(CSc1ccccc1)Nc1scc(-c2ccc(Br)cc2)c1C(=O)O [4-(4-bromophenyl)-2-(2-(phenylthio)acetamido)thiophene-3-carboxylic acid]
19,< 10 µM,Cc1ccc(C(=O)Nc2scc(-c3ccc(Br)cc3)c2C(=O)O)cn1 [4-(4-bromophenyl)-2-(6-methylnicotinamido)thiophene-3-carboxylic acid]
20,< 10 µM,O=C(O)c1c(-c2ccc(Br)cc2)csc1NC(=O)C1COc2ccccc2C1 (centres unmarked) [4-(4-bromophenyl)-2-(chroman-3-carboxamido)thiophene-3-carboxylic acid]
21,< 10 µM,Cc1ccc(-c2csc(NC(=O)c3nc4ccccc4s3)c2C(=O)O)cc1 [2-(benzo[d]thiazole-2-carboxamido)-4-p-tolylthiophene-3-carboxylic acid]
22,< 10 µM,Cc1ccc(-c2csc(NC(=O)c3scc(S(=O)(=O)C(C)C)c3Cl)c2C(=O)O)cc1 [2-(3-chloro-4-(isopropylsulfonyl)thiophene-2-carboxamido)-4-p-tolylthiophene-3-carboxylic acid]
